# In patent US10294204B2, “Fluorescence compounds and preparation method thereof” (BioActs Co., Ltd., priority 2016, dated 2019):
# Assays:
# Assay type in all cases: physicochemical
# [1] = Test Example 1: absorption and fluorescence intensity with and without the alkylcarboxyaminocyanuric chloride substituent
# Experimental: According to [Chemical Formula 1] disclosed herein, compounds to which a substituent including cyanuric chloride bound with an aminoalkylcarboxylic acid is introduced are prepared and optical properties thereof are compared with each other. Glycine is used as an aminoalkylcarboxylic acid to obtain Compound 1 (Example 1.7) disclosed herein, and the optical properties thereof are compared with those of the compound (Example 1.3) including no alkylcarboxyamino cyanuric chloride substituent introduced thereto.
# At the same concentration, the compounds of Example 1.7 and Example 1.3 are determined for absorption wavelength and intensity and the results are shown in FIG. 1A. […] To perform accurate comparison of fluorescence wavelength intensity, the concentration of each of the compounds of Example 1.7 and Example 1.3 is corrected so that they may have the same absorption intensity, and then the fluorescence wavelength and intensity of each compound are determined.
# [2] = Test Example 4 (1),(2): fluorescence intensity of free dye versus reference fluorescent dye
# Experimental: Compound 20 and a reference fluorescent dye (Alexa Fluor 647 NHS ester) are compared with each other in terms of fluorescence intensity. DMF is added to the two types of fluorescent dyes to provide stock solutions and each solution is adjusted to the same concentration of 10 mg/mL. Next, pH 7.4 10 mM phosphate buffered saline (hereinafter, 1×PBS) is used to dilute the solution to a concentration of 19.5 nM and fluorescence is determined under the setting of Excitation 560 nm. The fluorescence determination is carried out by using LS 55 Fluorescence spectrometer (Perkin Elmer).
# Compound 18 and a reference fluorescent dye (Alexa Fluor 555 NHS ester) are compared with each other in terms of fluorescence intensity. DMF is added to the two types of fluorescent dyes to provide stock solutions and each solution is adjusted to the same concentration of 10 mg/mL. Next, pH 7.4 10 mM phosphate buffered saline (hereinafter, 1×PBS) is used to dilute the solution to a concentration of 19.5 nM and fluorescence is determined under the setting of Excitation 552 nm. The fluorescence determination is carried out by using LS 55 Fluorescence spectrometer (Perkin Elmer).
# [3] = Test Example 4 (3),(4): relative quantum yield based on Rhodamine 6G; conditions: pH 7.4 1xPBS
# Experimental: (§1) Based on Rhodamine 6G (TCI), relative quantum yield of Compound 20 and that of the reference fluorescent dye (Alexa Fluor 647 NHS ester) are determined. DMF is added to the two types of fluorescent dyes and Rhodamine 6G to 10 mg/mL to provide stock solutions. Next, pH 7.4 1×PBS is used to dilute the solutions to a concentration of 10 μM and absorption and fluorescence are determined. Herein, 1/2 dilution is carried out from a concentration of 10 μM and then absorption and fluorescence are determined 10 times totally up to the sample of 1/512× concentration. The determined values are introduced to the following Mathematical Formula 1 to analyze the relative quantum yield and the results are shown in the following Table 3 and FIG. 6.
# [formula] • Q=Quantum Yield • I=Fluorophore • OD=Absorbance • SubscriptR=Rodamine 6G
# as §1, with “18” for “20”, “555” for “647”, “to” for “to the following”, “yield. The” for “yield and the results are shown in the”, “4” for “3”, “7 show the relative quantum yield of each dye.” for “6.”
# [4] = Test Example 2: fluorescence intensity as a function of concentration in PBS (plate reader), same absorption intensity; parameters: increment of fluorescence intensity compared to Compound 19: dose or concentration left out as unconfirmed
# Experimental: To determine a change in optical properties when the compound of [Chemical Formula 1] disclosed herein is modified to allow labeling of a biomolecule, an N-succinimidyl group is introduced to each of Compound 9.7 and Compound 10 to obtain Compound 19 and Compound 20, respectively, in the same manner as described hereinabove. Then, fluorescence characteristics are compared at the same absorption wavelength intensity.
# Each of Compound 19 and Compound 20 is added to 5 mL of PBS at a concentration of 10 mg/mL at room temperature to provide samples. Next, 1 mL of PBS is added to 2 mL of each sample and the intensity is measured as a function of absorption wavelength. After adjusting the concentration of a sample so that the absorption intensity (Abs at 650 nm) of Compound 19 may be the same as that of Compound 20 from the resultant data, the sample is diluted many times and the fluorescence thereof is determined by using a plate reader (Perkin Elmer).
compound,measurement,setting,value
CC[N+]1=C(/C=C/C=C2/N(CCCCCC(=O)NNc3nc(Cl)nc(NCC(=O)O)n3)c3ccc(S(=O)(=O)O)cc3C2(C)C)C(C)(C)c2cc(S(=O)(=O)[O-])ccc21 [Compound 1],intensity of fluorescence wavelength relative to Example 1.3,"[1]; concentration corrected to same absorption intensity, FIG. 1B",approximately two times higher
CC1(CCCCCC(=O)NCCCNc2nc(Cl)nc(NCCCCCC(=O)ON3C(=O)CCC3=O)n2)C(/C=C/C=C2/N(CCCS(=O)(=O)O)c3ccc(S(=O)(=O)O)cc3C2(C)C)=[N+](CCCS(=O)(=O)O)c2ccc(S(=O)(=O)[O-])cc21 (stereo not drawn) [Compound 18],fluorescence intensity versus reference fluorescent dye (Alexa Fluor 555 NHS ester),"[2]; 19.5 nM in 1xPBS pH 7.4, Excitation 552 nm, FIG. 5",relatively higher fluorescence intensity
same,Relative quantum yield (%),[3]; 552 compound,13.34%
CC1(CCCCCC(=O)ON2C(=O)CCC2=O)C(/C=C/C=C/C=C2/N(CCCS(=O)(=O)O)c3ccc(S(=O)(=O)O)cc3C2(C)C)=[N+](CCCS(=O)(=O)[O-])c2ccc(S(=O)(=O)O)cc21 (stereo not drawn) [Compound 19],Average fluorescence intensity (at 665 nm),[4]; 3 nM in PBS,412.0
same,Average fluorescence intensity (at 665 nm),[4]; 6 nM in PBS,810.7
same,Average fluorescence intensity (at 665 nm),[4]; 12 nM in PBS,1673.0
same,Average fluorescence intensity (at 665 nm),[4]; 25 nM in PBS,3336.7
same,Average fluorescence intensity (at 665 nm),[4]; 49 nM in PBS,6483.7
same,Average fluorescence intensity (at 665 nm),[4]; 98 nM in PBS,12523.0
same,Average fluorescence intensity (at 665 nm),[4]; 196 nM in PBS,24679.7
same,Average fluorescence intensity (at 665 nm),[4]; 393 nM in PBS,48611.7
same,Average fluorescence intensity (at 665 nm),[4]; 785 nM in PBS,91308.7
same,Average fluorescence intensity (at 665 nm),[4]; 1570 nM in PBS,160778.3
same,Average fluorescence intensity (at 665 nm),[4]; 3140 nM in PBS,240494.7
same,Average fluorescence intensity (at 665 nm),[4]; 6280 nM in PBS,308345.7
CC1(CCCCCC(=O)NCCCNc2nc(Cl)nc(NCCCCCC(=O)ON3C(=O)CCC3=O)n2)C(/C=C/C=C/C=C2/N(CCCS(=O)(=O)O)c3ccc(S(=O)(=O)O)cc3C2(C)C)=[N+](CCCS(=O)(=O)[O-])c2ccc(S(=O)(=O)O)cc21 (stereo not drawn) [Compound 20],Average fluorescence intensity (at 665 nm),[4]; 3 nM in PBS,313.3
same,Average fluorescence intensity (at 665 nm),[4]; 6 nM in PBS,721.3
same,Average fluorescence intensity (at 665 nm),[4]; 12 nM in PBS,1454.7
same,Average fluorescence intensity (at 665 nm),[4]; 25 nM in PBS,2994.3
same,Average fluorescence intensity (at 665 nm),[4]; 49 nM in PBS,6693.3
same,Average fluorescence intensity (at 665 nm),[4]; 98 nM in PBS,13859.7
same,Average fluorescence intensity (at 665 nm),[4]; 196 nM in PBS,29396.3
same,Average fluorescence intensity (at 665 nm),[4]; 393 nM in PBS,59756.7
same,Average fluorescence intensity (at 665 nm),[4]; 785 nM in PBS,118049.0
same,Average fluorescence intensity (at 665 nm),[4]; 1570 nM in PBS,209850.3
same,Average fluorescence intensity (at 665 nm),[4]; 3140 nM in PBS,321865.0
same,Average fluorescence intensity (at 665 nm),[4]; 6280 nM in PBS,418428.3
same,increment of fluorescence intensity compared to Compound 19,[4]; FIG. 2,about 40%
same,fluorescence intensity versus reference fluorescent dye (Alexa Fluor 647 NHS ester),"[2]; 19.5 nM in 1xPBS pH 7.4, Excitation 560 nm, FIG. 4",relatively higher fluorescence intensity
same,Relative quantum yield (%),[3]; 650 compound,11.70%
CC[N+]1=C(/C=C/C=C2/N(CCCCCC(=O)O)c3ccc(S(=O)(=O)O)cc3C2(C)C)C(C)(C)c2cc(S(=O)(=O)[O-])ccc21 [Example 1.3],absorption wavelength intensity,"[1]; same concentration, Example 1.7 versus Example 1.3, FIG. 1A",slightly higher
Alexa Fluor 555 NHS ester [reference compound],Relative quantum yield (%),[3]; 552 compound,5.64%
Alexa Fluor 647 NHS ester [reference compound],Relative quantum yield (%),[3]; 650 compound,7.79%
